Test results from US20250270208A1, “BICYCLIC HETEROCYCLES AS MRGPRX2 ANTAGONISTS” (Incyte Corporation, priority 2023, published 2025).

Legend:
Format in all cases: cell-based
MRGPRX2 [1] = target: T1, MRGPRX2 (Homo sapiens, UniProt Q96LB1); assay: MRGPRX2 FLIPR calcium mobilization assay; set-up: host or cells: CHO-K1; details: CHO-K1 cells stably expressing human MRGPRX2; Ca2+ release; agonist Cortistatin-14 at EC80
T1 sequence (Q96LB1 1-330): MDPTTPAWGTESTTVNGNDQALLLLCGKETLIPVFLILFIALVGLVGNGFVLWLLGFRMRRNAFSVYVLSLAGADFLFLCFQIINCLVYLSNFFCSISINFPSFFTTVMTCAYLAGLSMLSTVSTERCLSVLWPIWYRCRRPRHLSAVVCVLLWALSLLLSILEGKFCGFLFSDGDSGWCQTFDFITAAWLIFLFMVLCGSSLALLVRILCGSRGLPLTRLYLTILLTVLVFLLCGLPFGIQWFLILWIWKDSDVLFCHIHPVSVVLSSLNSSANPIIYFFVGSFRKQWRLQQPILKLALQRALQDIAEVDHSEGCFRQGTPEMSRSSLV
Procedure: Chinese hamster ovary (CHO-K1) cells stably expressing human MRGPRX2 were purchased from Genescript (Piscataway, NJ). The cells were maintained in culture medium (Ham's F-12K) containing 10% (v/v) FBS, 200 μg/mL Zeocin, 100 units/mL penicillin G and 100 μg/mL streptomycin (Life Technologies, Carlsbad, CA). For the assay, the cells were harvested and resuspended with culture medium without Zeocin before plating at 8000 cells per well in 20 μL in 384-well black clear bottom cell culture plates (VWR, Radnor, PA). After 24 hour culture at 37° C. and 5% CO2, the cells were loaded with 20 μL/well of calcium dye (FLIPR Calcium 6 Assay Kit, Molecular Devices, San Jose, CA) diluted in loading buffer (1× Hank's Balanced Salt Solution (HBSS), 5 mM probenecid, 20 mM 4-(2-hydroxyethyl)-1-piperazineethanesulfonic acid (HEPES), pH 7.4, VWR, Radnor, PA) followed with 45 min incubation at 37° C. and 40 min. at r.t. in the dark. Cells were then treated with the addition of 10 uL/well test compounds with a range of increasing concentrations diluted in the assay buffer (1×HBSS, 20 mM HEPES, pH 7.4, VWR, Radnor, PA) with FLIPR Penta (Molecular Devices. San Jose, CA) and incubated for 30 min. at r.t. Ca^2+ release was measured with FLIPR Penta with 10 s basal fluorescence measurement, then 12.5 μL of 5× agonist Cortistatin-14 (Tocris, Minneapolis, MN) at final concentration corresponding to the EC80 were added followed with continued fluorescence signal monitoring for an additional 110 s. The base line adjusted (median of first 10 s base line) max value of the Relative Fluorescence Unit (RFU) was plotted against compound concentrations. Wells with no compound were served as the positive controls, and wells with high concentration of reference antagonist were used as negative controls. IC50 curves were globally fitted with 3- or 4-parameter Hill equation in a Genedata Screener (Genedata Basel, Switzerland).

MRGPRX2 [2] = target: T1, MRGPRX2; assay: MRGPRX2 IP1 HTRF assay; set-up: host or cells: CHO-K1; details: CHO-K1 cells stably expressing human MRGPRX2; IP1 accumulation; agonist Cortistatin 14 1 μM
Procedure: This assay measures compound inhibition of myo-Inositol 1 phosphate (IP1) accumulation in CHO-K1 cells. Chinese hamster ovary (CHO-K1) cells stably expressing human MRGPRX2 were purchased from GenScript (Piscataway, NJ).
For the HTRF IP1 determination, an IP-One GqKit (Perkin Elmer Cisbio, Waltham, MA), which includes all reagents and buffers in this protocol, was used. The cells were maintained in culture medium (Ham's F-12K) containing 10% (v/v) FBS, and 200 μg/mL Zeocin. For the assay, the cells were harvested and resuspended in culture medium with 2% FBS and without Zeocin, then were passed through a 40 μm filter. Cells were added at 20000 cells in a 5 μL/well to a 384-well white small volume cell culture plate (Greiner VWR, Radnor, PA) which contained 50 nL/well of test compound serially diluted at a selected concentration range in DMSO. 5 μL/well of prepared 2× Stimulation Buffer 2 was then added to plates and was incubated at 37° C. with 5% CO2 for 1 h. 5 μL/well of agonist Cortistatin 14 (Bio-TechneR&D Systems, Minneapolis, MN) in 1× Stimulation Buffer 2, for a 1 μM final concentration, was then added to plates and incubated at 37° C. with 5% CO2 for 1 h. 6 μL/well of 1:20 diluted Detection Reagent Mix (d2 and Cryptate) was added to the plates and incubated for 1 h in the dark. Plates were read on the PHERAstar microplate reader (BMG Labtech Cary, NC) to determine the HTRF ratio of the acceptor and donor emission signals. The IP1 concentrations were calculated from a standard curve following the IP-One GQ kit instructions. Wells with DMSO only and wells with high concentration of reference antagonist were used as controls for normalization. Compound IC50 curves were globally fitted with 3- or 4-parameter Hill equation in a Genedata Screener (Genedata Basel, Switzerland).

MRGPRX2 [3] = target: T1, MRGPRX2; assay: MRGPRX2 β-Arrestin assay; set-up: host or cells: PathHunter CHO-K1; details: PathHunter CHO-K1 MRGPRX2 β-Arrestin cell line; agonist Cortistatin 14 0.25 μM
Excerpt: This assay measures compound inhibition of β-Arrestin recruitment, which is part of the G protein-independent pathway that results from the ligand-activated GPCR phosphorylation by specific GPCR kinases. The PathHunter CHO-K1 MRPGRX2 β-Arrestin Cell line stably expressing ProLink tagged MRGPRX2 and Enzyme Acceptor Tagged β-Arrestin was purchased from Eurofins DiscoverX, (Fremont, CA).
The cells were maintained in culture medium from the Europhins DiscoverX Cell Culture Kit-107 which includes FBS, hygromycin B and G418. For the assay, the cells were harvested and were resuspended with Cell Plating Reagent 2 (Eurofins DiscoverX). Cells were added 10000 cells in 25 μL/well to a 384-well black cell culture plate (Greiner VWR, Radnor, PA) which contained 125 nL/well of compound at a selected serially diluted concentration range or DMSO. The plate was incubated at 37° C. with 5% CO2 for 1 h. 2 μL/well of agonist Cortistatin 14 was diluted in Protein Dilution Buffer, (Eurofins DiscoverX) for a final concentration of 0.25 μM, was added and the plate was incubated at 37° C. with 5% CO2 for 90 min. 14 μL/well of Detection Reagent Mix (PathHunter Detection Kit, Eurofins DiscoverX) was added to the plates and further incubated for 1 h in the dark. Plates were read on the PHERAstar microplate reader (BMG Labtech Cary, NC) measuring luminescence 0.1 to 1 s per well. Data was normalized using DMSO only wells and wells with high concentration of reference antagonist as controls. Compound IC50 curves were globally fitted with 3- or 4-parameter Hill equation in a Genedata Screener (Genedata Basel, Switzerland).

Row | Compound | IC50 (MRGPRX2 [1]) | IC50 (MRGPRX2 [2]) | IC50 (MRGPRX2 [3])
1 | Cc1cc2c(N[C@@H]3CCC[C@H](Nc4cc(C(F)(F)F)nc5ccc(Cl)cc45)C3)nccn2n1 [Example 11, (1S,3R)-N^1-(6-Chloro-2-(trifluoromethyl)quinolin-4-yl)-N^3-(2-methylpyrazolo[1,5-a]pyrazin-4-yl)cyclohexane-1,3-diamine] | 0.0001 to 0.1 µM | 0.0001 to 0.1 µM | 0.0001 to 0.1 µM
2 | Cc1ncc2c(N[C@@H]3CCC[C@H](Nc4cc(C(F)(F)F)nc5ccc(Cl)cc45)C3)nccn12 [Example 10, (1S,3R)-N^1-(6-Chloro-2-(trifluoromethyl)quinolin-4-yl)-N^3-(3-methylimidazo[1,5-a]pyrazin-8-yl)cyclohexane-1,3-diamine] | 0.0001 to 0.1 µM | 0.0001 to 0.1 µM | 0.0001 to 0.1 µM
3 | Cn1cnc2ccnc(N[C@H]3CC[C@@H](Nc4cc(C(F)(F)F)nc5ccccc45)CC3)c21 [Example 22, (1s,4s)-N^1-(3-Methyl-3H-imidazo[4,5-c]pyridin-4-yl)-N^4-(2-(trifluoromethyl)quinolin-4-yl)cyclohexane-1,4-diamine] | 0.0001 to 0.1 µM | 0.1 to 1 µM | 0.0001 to 0.1 µM
4 | FC(F)(F)c1cc(N[C@H]2CCC[C@@H](Nc3nnc4ccccn34)C2)c2cc(Cl)ccc2n1 [Example 24, (1R,3S)-N^1-([1,2,4]Triazolo[4,3-a]pyridin-3-yl)-N^3-(6-chloro-2-(trifluoromethyl)quinolin-4-yl)cyclohexane-1,3-diamine] | 0.0001 to 0.1 µM | 0.0001 to 0.1 µM | 0.0001 to 0.1 µM

The next lines start with the values.

Row | IC50 (MRGPRX2 [1]) | IC50 (MRGPRX2 [2]) | IC50 (MRGPRX2 [3]) | Compound
5 | 0.0001 to 0.1 µM | 0.0001 to 0.1 µM | 0.0001 to 0.1 µM | Fc1ccc2nc(C(F)(F)F)cc(N[C@H]3CCC[C@@H](Nc4nnc5ccccn45)C3)c2c1 [Example 33, (1R,3S)-N^1-([1,2,4]Triazolo[4,3-a]pyridin-3-yl)-N^3-(6-fluoro-2-(trifluoromethyl)quinolin-4-yl)cyclohexane-1,3-diamine]
6 | 0.0001 to 0.1 µM | 0.0001 to 0.1 µM | 0.0001 to 0.1 µM | FC(F)(F)c1cc(N[C@H]2CCC[C@@H](Nc3nccc4ncccc34)C2)c2cc(Cl)ccc2n1 [Example 5, (1S,3R)-N^1-(6-Chloro-2-(trifluoromethyl)quinolin-4-yl)-N^3-(1,6-naphthyridin-5-yl)cyclohexane-1,3-diamine]
7 | 0.0001 to 0.1 µM | 0.1 to 1 µM | 0.0001 to 0.1 µM | Cn1cnc2ccnc(N[C@@H]3CCC[C@H](Nc4cc(C(F)(F)F)nc5ccccc45)C3)c21 [Example 15, (1R,3S)-N^1-(3-Methyl-3H-imidazo[4,5-c]pyridin-4-yl)-N^3-(2-(trifluoromethyl)quinolin-4-yl)cyclohexane-1,3-diamine]
8 | 0.0001 to 0.1 µM | 0.0001 to 0.1 µM | 0.0001 to 0.1 µM | Fc1ccc2nc(C(F)(F)F)cc(N[C@H]3CCC[C@@H](Nc4nccc5ncccc45)C3)c2c1 [Example 25, (1S,3R)-N^1-(6-Fluoro-2-(trifluoromethyl)quinolin-4-yl)-N^3-(1,6-naphthyridin-5-yl)cyclohexane-1,3-diamine]
9 | 0.0001 to 0.1 µM | 0.0001 to 0.1 µM | 0.0001 to 0.1 µM | Cc1ccc2nc(C(F)(F)F)cc(N[C@H]3CCC[C@@H](Nc4nccc5ncn(C)c45)C3)c2c1 [Example 17, (1S,3R)-N^1-(6-Methyl-2-(trifluoromethyl)quinolin-4-yl)-N^3-(3-methyl-3H-imidazo[4,5-c]pyridin-4-yl)cyclohexane-1,3-diamine]
